Measured values taken from PMC12461607, “Profiling polyamine–protein interactions in live cells through photoaffinity labeling” (RSC Chemical Biology, 2025).

Target: T1, TUBA1C (Homo sapiens, UniProt Q9BQE3)
T1 construct: endogenous protein in live HeLa cells, no tag; modified C-terminal peptides 423-449 and 431-449
Assay: live-cell photoaffinity labelling, biotin enrichment, TMT LC-MS/MS
Assay type: cell-based
Details: covalent after UV 365 nm; live HeLa cells; C-terminal acidic region

T1 sequence (Q9BQE3 whole entry): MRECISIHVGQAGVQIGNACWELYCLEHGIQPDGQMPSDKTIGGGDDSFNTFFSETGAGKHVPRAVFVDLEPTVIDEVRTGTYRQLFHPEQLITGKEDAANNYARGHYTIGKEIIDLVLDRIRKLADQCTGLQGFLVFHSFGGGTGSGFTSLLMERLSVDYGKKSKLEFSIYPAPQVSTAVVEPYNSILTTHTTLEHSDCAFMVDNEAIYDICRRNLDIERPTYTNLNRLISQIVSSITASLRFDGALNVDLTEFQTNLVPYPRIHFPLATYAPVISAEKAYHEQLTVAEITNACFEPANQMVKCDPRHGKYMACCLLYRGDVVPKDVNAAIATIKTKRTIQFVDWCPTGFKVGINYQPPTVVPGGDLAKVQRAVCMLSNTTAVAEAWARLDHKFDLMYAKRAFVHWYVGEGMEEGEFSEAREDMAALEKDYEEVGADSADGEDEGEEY

| live-cell photoaffinity labelling, biotin enrichment, TMT LC-MS/MS | SMILES |
| --- | --- |
| several tubulins (including TUBA1C) | C#CCCC1(CCNCCCCNCCCN)N=N1 [compound 4, spermidine analog 4] |
| several tubulins (including TUBA1C) | C#CCCC1(CCNCCCNCCCCN)N=N1 [compound 5, spermidine analog 5] |
